How the values were obtained:
AsNAL [1] = assay: Production of Neu5,7Ac2/Neu5,8Ac2/Neu5,9Ac2 and legionaminic acid by AsNAL (DMB-HPLC-MS); type: biochemical, Aliivibrio salmonicida; settings: for RT 3.29 (Area), legionaminic acid / 468.1613@3.56 Area (Neu5,7Ac2) / 468.1613@4.05 Area (Neu5,8Ac2) / 468.1613@4.4 Area (Neu5,9Ac2): 15 mM substrate, 15 mM pyruvate, 28 μg AsNAL, HEPES pH 8.0
Method: 15 mM of 4-O-acetyl-2-N-acetylmannosamine (4-OAc-ManNAc) or 2,4-diacetamino-2,4,6-trideoxymannose, 15 mM of pyruvate, 28 μg of enzyme (AsNAL), 124 mM HEPES buffer, pH 8.0 and dH2O were mixed in a tube to a total volume of 200 μl. Aliquots were sampled after 1.0, 1.5 and 4.0 h for production of di-acetylated Neus. For production of Legionaminic acid aliquots were sampled after 1.0 and 3.0 h. Reactions were terminated by addition of 2 μl concentrated H2SO4. Samples were passed over Amicon Ultra spin-columns with a 10000 molecular weight cut-off (Millipore) to remove high molecular weight compounds. The low molecular weight fractions were then used in DMB-HPLC coupled to mass spectrometric analyses. Derivatization of samples with DMB were performed according to protocol given by the supplier (Sialic Acid Fluorescence Labeling Kit, Takara Inc.). Reactions were carried out for 2.5 hours at 50° C. in the dark. A reference panel with a mixture of the Sias; Neu5Gc, Neu5Ac, Neu5,7Ac2, Neu5Gc9Ac, Neu5,9Ac2 and Neu5, (7/8)9Ac3 (ProZyme Inc.) were also subjected to derivatization with DMB. DMB-labeled sialic acids were separated by HPLC using Accela HPLC (Thermo Scientific) on a LTQ Orbitrap XL Fourier Transform Mass Spectrometer (FTMS) with an Electrospray ion source (Thermo Scientific) using a positive ion profile mode fullscan (+pESI). The column used was a Hypersil Gold 50×2.1 mm, 1.9 μm reversed-phase C18 column (Thermo scientific).). Elution was achieved using water with 0.1% formic acid (A) and acetonitrile with 0.1% formic acid (B) at a flow rate of 400 μl/min.
The analytical conditions were set to 300° C. for capillary temperature, 4.5 kV spray voltage, m/z 350-550 scan range and 35% collision energy. The MS/MS was targeted on the masses m/z 426.15, m/z 468.16 and m/z 451.18 using Ion trap MS (ITMS)+cESI with full MS2 in scan range m/z 125-480, corresponding to the DMB derivates DMB-Neu5Ac, DMB-di-acetylated Neu and DMB-Leg.

AsNAL [2] = assay: Cleavage of Neu5Ac, Neu5Gc and KDN by AsNAL (TBA assay); type: biochemical, Aliivibrio salmonicida; settings: 5 mM substrate, 6.6 μg AsNAL, HEPES pH 8.0, 1 h room temperature
Method: The cleavage reaction of AsNAL contained 6.6 μg of AsNAL, 5 mM Neu5Gc or KDN and 124 mM HEPES buffer pH 8.0. For blank (H2O) and positive control the same components of the reactions were used, but the amount of enzyme was replaced by assay buffer. All reactions were filled up to a total volume of 50 μL with dH2O. The assay was performed in triplicate. After 1 h incubation at room temperature, the enzyme reaction was stopped by adding 2 μL concentrated H2SO4. The thiobarbituric acid (TBA) assay procedure was followed to determine the amount cleaved.

[3] = tested on: CC(=O)N[C@H]1[C@H]([C@H](O)[C@H](O)CO)OC(O)(C(=O)O)C[C@@H]1O; assay: LDH-coupled continuous assay, enzyme kinetics for the cleavage reaction of Neu5Ac (AsNAL); type: biochemical, Aliivibrio salmonicida; settings: other: cleavage reaction, Neu5Ac 1-90 mM, 50 mM Tris-HCl pH 8.5, 37° C.
Method: (§1) Further, the enzyme kinetics for the cleavage reactions were studied using a lactate dehydrogenase (LDH)-coupled continuous assay (Comb and Roseman, 1960; Wang and Lee, 2006). The incubation mixtures contained variable amounts (1, 5, 15, 30, 45, 60, 75 and 90 mM) of Neu5Ac, 50 mM Tris-HCl, pH 8.5, 0.15 mM NADH (Sigma), 4U LDH (Sigma) and 0.315 μg of NAL in final volumes of 200 μl. Components, except the enzyme, were mixed and incubated at 37° C. for 5 min before the reactions were started by adding the specific enzyme. The measurements were done in triplicates. The decrease in absorbance at 340 nm corresponding to the oxidation of NADH by LDH in presence of released pyruvate was measured spectrophotometrically using a Spectramax M2e Microplate reader. Initial velocities were calculated using the SoftMax Pro software (Molecular Devices) and subsequently fitted to the Michaelis-Menten equation using the program GraphPad Prism 5 (GraphPad Software Inc.). The kcat values were calculated using the formula Vmax/[Enzyme]. The relationship between absorbance and substrate concentration was calculated from a standard-curve obtained by measuring the maximum absorbance from various substrate concentrations. The relationship is given by the formula: y=0.0031x+0.0052, where x is the pyruvate concentration. By using this formula, values of Vmax were converted from mOD/min to μM/min. Enzyme concentrations were converted from mg/ml to molar using the calculated molecular mass of 32257.9 g/mol (monomeric protein).
(§2) The AsNAL Michaelis constant (KM) is somewhat higher than the KM obtained for EcNAL. However, the turnover number, kcat, is strikingly higher than for EcNAL.

[4] = molecular target: Aliivibrio salmonicida LFI1238 N-acetylneuraminate lyase (AsNAL), wild type, SEQ ID NO: 1 (Aliivibrio salmonicida, UniProt B6EI04); assay: as above; type: biochemical; settings: Neu5Ac 1-90 mM, 50 mM Tris-HCl pH 8.5, 37° C.
Method: as §1, §2

[5] = molecular target: T1, E. coli N-acetylneuraminate lyase (EcNAL), commercially available (Sigma) (Escherichia coli, UniProt P0A6L4); assay: LDH-coupled continuous assay, enzyme kinetics for the cleavage reaction of Neu5Ac (EcNAL); type: biochemical; settings: Neu5Ac 1-90 mM, 50 mM Tris-HCl pH 8.5, 37° C.
T1 sequence (P0A6L4 1-297): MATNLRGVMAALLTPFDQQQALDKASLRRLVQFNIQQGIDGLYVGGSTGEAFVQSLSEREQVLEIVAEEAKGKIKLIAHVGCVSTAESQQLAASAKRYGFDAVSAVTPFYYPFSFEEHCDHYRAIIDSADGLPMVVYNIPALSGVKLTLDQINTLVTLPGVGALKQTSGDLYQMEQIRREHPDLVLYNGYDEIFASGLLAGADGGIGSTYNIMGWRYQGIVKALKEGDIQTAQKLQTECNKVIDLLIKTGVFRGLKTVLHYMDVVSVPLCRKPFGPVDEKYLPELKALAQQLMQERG
Method: as §1, with “The relationship is given by the formula: y=0.0031x+0.0052, where x is the pyruvate concentration. By using this formula, values of Vmax were converted from mOD/min to μM/min.” left out, “protein). […]” for “protein).”

[6] = Integrated reaction: Neu5Ac production from GlcNAc and pyruvate at alkaline pH (TBA assay); type: biochemical
Method: For ManNAc reactions, the buffer used was HEPES, pH 8.0. […] Experiments were performed in triplicate. For ManNAc experiments, aliquots were sampled after 0.5, 1.0, 1.5, 2.5 and 4.0 h. For GlcNAc experiments, aliquots were sampled after 12, 24, 36, 48 and 72 h. Reactions were terminated by addition of 2 μl concentrated H2SO4. The time needed for N-acetylneuraminic acid (Neu5Ac) production to get started under these conditions was known to take longer time based on initial test experiments. The thiobarbituric acid (TBA) assay procedure was followed to determine the amount of Neu5Ac produced. The activity was corrected for a blank value. The blank contained all the reaction components except for enzyme.
Initially, also glycine buffer was tested at pH 10.5 and pH 11.0 for the reactions with GlcNAc. GlcNAc will chemically epimerize to ManNAc at pH values above 9.0, which the enzyme will use as substrate for the production of Neu5Ac. The epimerization is pH dependent and will increase with increasing pH. Production of Neu5Ac was higher in CAPS buffer compared to glycine buffer, so this was chosen for further experiments.

CC(=O)N[C@@H]([C@H](O)[C@@H](C=O)NC(C)=O)[C@@H](C)O [2,4-diacetamino-2,4,6-trideoxymannose]
RT 3.29 (Area), legionaminic acid (AsNAL [1]; 1 h): 902252 | RT 3.29 (Area), legionaminic acid (AsNAL [1]; 3 h): 1663378

O=C(CO)N[C@H]1[C@H]([C@H](O)[C@H](O)CO)OC(O)(C(=O)O)C[C@@H]1O (stereo partly shown) [Neu5Gc, N-glycolylneuraminic acid]
% cleaved (AsNAL [2]): 73.9% | Cleaved (OD) (AsNAL [2]): 4.018 ± 0.076 | OD sample-blank (measures uncleaved substrate) (AsNAL [2]): 1.422 ± 0.076

Aliivibrio salmonicida LFI1238 N-acetylneuraminate lyase (AsNAL), wild type, SEQ ID NO: 1 (Aliivibrio salmonicida LFI1238)
Km [3]: 53.88 ± 6.55 mM | kcat [3]: 19.1 s⁻¹ | kcat/Km [3]: 354 M⁻¹ s⁻¹

CC(=O)N[C@H]1[C@H]([C@H](O)[C@H](O)CO)OC(O)(C(=O)O)C[C@@H]1O (stereo partly shown) [Neu5Ac, N-acetylneuraminic acid]
Vmax [4]: 315.5 ± 18.5 | Vmax [5]: 208.9 ± 16.7 | % cleaved (AsNAL [2]): 82.6% | Cleaved (OD) (AsNAL [2]): 4.984 ± 0.016 | OD sample-blank (measures uncleaved substrate) (AsNAL [2]): 1.048 ± 0.016

CC(=O)N[C@@H]1C(O)O[C@H](CO)[C@@H](OC(C)=O)[C@@H]1O (stereo partly shown) [4OAc-ManNAc, 4-O-acetyl-2-N-acetylmannosamine]
468.1613@3.56 Area (Neu5,7Ac2) (AsNAL [1]; 1 hour): 3258981 | 468.1613@4.05 Area (Neu5,8Ac2) (AsNAL [1]; 1 hour): 4611697 | 468.1613@4.4 Area (Neu5,9Ac2) (AsNAL [1]; 1 hour): 20834893 | 468.1613@3.56 Area (Neu5,7Ac2) (AsNAL [1]; 1.5 hours): 4048804 | 468.1613@4.05 Area (Neu5,8Ac2) (AsNAL [1]; 1.5 hours): 5467510 | 468.1613@4.4 Area (Neu5,9Ac2) (AsNAL [1]; 1.5 hours): 23706892 | 468.1613@3.56 Area (Neu5,7Ac2) (AsNAL [1]; 4 hours): 4484920 | 468.1613@4.05 Area (Neu5,8Ac2) (AsNAL [1]; 4 hours): 6019425 | 468.1613@4.4 Area (Neu5,9Ac2) (AsNAL [1]; 4 hours): 26500427 | production of Neu5,9Ac2, Neu5,7Ac2 and Neu5,8Ac2 relative to ManNAc as a substrate (AsNAL [1]; same conditions, pH 8.0, asNAL): 30-40%

O=C(O)C(=O)C[C@H](O)[C@@H](O)[C@@H](O)[C@H](O)[C@H](O)CO [KDN, 2-keto-3-deoxy-D-glycero-D-galacto-nononic acid]
% cleaved (AsNAL [2]): 50.0% | Cleaved (OD) (AsNAL [2]): 2.658 ± 0.130 | OD sample-blank (measures uncleaved substrate) (AsNAL [2]): 2.662 ± 0.130

B1: EcNAL: commercially available N-acetylneuraminate lyase from E. coli (Sigma) (protein, UniProt P0A6L4 2-297, looked up)
N-acetylneuraminate lyase: ATNLRGVMAALLTPFDQQQALDKASLRRLVQFNIQQGIDGLYVGGSTGEAFVQSLSEREQVLEIVAEEAKGKIKLIAHVGCVSTAESQQLAASAKRYGFDAVSAVTPFYYPFSFEEHCDHYRAIIDSADGLPMVVYNIPALSGVKLTLDQINTLVTLPGVGALKQTSGDLYQMEQIRREHPDLVLYNGYDEIFASGLLAGADGGIGSTYNIMGWRYQGIVKALKEGDIQTAQKLQTECNKVIDLLIKTGVFRGLKTVLHYMDVVSVPLCRKPFGPVDEKYLPELKALAQQLMQERG
production of Neu5Ac (in words) ([6]; pyruvate and GlcNAc 4:1, CAPS pH 11.0): low | production of Neu5Ac (in words) ([6]; pyruvate and GlcNAc, CAPS pH 11.5): no production was observed

From patent publication US10378034B2, “Use of a N-acetylneuraminate lyase derived from the bacterium Aliivibrio salmonicida in the production of neuraminic acid and derivatives thereof” (Universitetet i Tromsø-Norges Arktiske Universitet, priority 2014, dated 2019)
